Data from patent publication US20220193047A1, “METHODS OF ENHANCING RADIOTHERAPY USING FERROPTOSIS INDUCERS AS RADIOSENSITIZERS” (THE TRUSTEES OF COLUMBIA UNIVERSITY IN THE CITY OF NEW YORK, priority 2019, published 2022).

How the values were obtained:
HT-1080 xenograft tumors = assay: HT-1080 tumor xenograft study in mice; settings: 40 mg/kg IKE i.p. daily for 14 days
Method: The injections were repeated daily for 14 days. […] For the sorafenib experiment, the formulation used was 40 mg/kg sorafenib in 5% DMSO, 20% ethanol in water containing 30% w/v cyclodextrin. […] Tumor size was measured daily using calipers and mouse weight was measured daily.
The efficacy of the combined treatment regimen of radiation and ferroptosis inducer was evaluated in an in vivo tumor model. […] Athymic nude mice were implanted with subcutaneous HT-1080 fibrosarcoma cells to form xenograft tumors.

[1] = system: TM00219 patient-derived xenograft tumors; assay: Patient-derived xenograft study in mice (TM00219 lung adenocarcinoma); type: in vivo; settings: 40 mg/kg i.p. daily for 14 days, NSG mice
Method: The experiment was conducted according to the same protocol as the HT-1080 tumor xenograft study, with the exception that a single dose of radiation (sham or 6 Gy) was delivered to the tumor on day 1 of the experiment.
Finally, the effect of ferroptosis-inducing system xc^− inhibitors, in combination with radiation, was tested on a patient-derived xenograft (PDX) model of lung adenocarcinoma, which is another type of cancer commonly treated with radiation therapy. NSG mice engrafted with a human lung adenocarcinoma tumor (TM00219) were evaluated.

[2] = system: lipid species in HT-1080 cells; assay: Mass spectrometry-based untargeted lipidomics; type: cell-based
Method: Homogenized samples were transferred to fresh glass tubes containing 850 mL of cold methyl-tertbutyl ether (MTBE) and vortex-mixed for 30 sec. To enhance extraction efficiency of lipids, the samples were incubated for one hour at 4° C. on an orbital shaker. Afterwards, 200 mL of cold water was added to each sample, and incubated for 20 min on ice before centrifugation at 3,000 rpm for 20 min at 4° C. The organic layer was collected followed by drying under a gentle stream of nitrogen gas on ice and stored at −80° C. until UPLC-MS analysis. The protein pellet was used to measure protein concentration for normalization using Bio-Rad protein assay. The samples were re-constituted in a solution containing 2-propanol/acetonitrile/water (4:3:1, v/v/v) containing mixture of internal standard (PLASH® LIPIDOMIX® Mass Spec Standard, Avanti Polar Lipids, INC.) for further UPLC-MS analysis. A quality control (QC) sample was prepared by combining 40 mL of each sample to assess the reproducibility of the features through the runs.
Chromatographic separation of extracted lipids was carried out at 55° C. on ACQUITY UPLC CSH C18 Column, (130 Å, 1.7 μm, 2.1 mm×100 mm) over a 20-min gradient elution. Mobile phase A consisted of ACN/water (60:40, v/v) and mobile phase B was 2-propanol/ACN/water (85:10:5, v/v/v) both containing 10 mM ammonium acetate and 0.1% acetic acid. […]

[3] = type: in vivo; settings: 40 mg/kg IKE i.p. 14 days, with or without 6 Gy radiation
[4] = system: reduced glutathione (GSH) in HT-1080 cells; assay: Reduced glutathione measurement in cells; type: cell-based; settings: HT-1080, irradiated cells (2 or 6 Gy, 24 hours) co-treated with 2 μM IKE
Method: Cystine taken up by system xc^− is reduced to cysteine, a building block in the biosynthesis of glutathione. […] Using a fluorometric GSH probe, we observed that treatment with 2 or 6 Gy radiation for 24 hours depleted GSH in a dose-dependent manner in HT-1080 cells (FIG. 2E). […] Indeed, the decrease in colony formation of HT-1080 cells following 2 or 4 Gy radiation was rescued by either glutathione methyl ester or N-acetylcysteine, which is a biological precursor to glutathione (FIG. 9).

[5] = system: MDA in HT-1080 xenograft tumor tissue; assay: MDA immunohistochemistry on paraffin-embedded tumor sections; type: in vivo, mice; settings: tumors resected at day 14
Method: Tumor tissue was fixed in 4% paraformaldehyde (PFA) for 24 h at 4° C. followed by washing three times with PBS. The samples were fixed in paraffin. Six series of […] sections were obtained with a sliding microtome. The serial sections were then mounted on gelatin-coated slide. The paraffin-embedded tissue sections were deparaffinized with xylene three times, 5 min each, followed by rehydrating in 100%, 90%, 70%, and 50% ethanol, two washes 5 min each, then rinsed with distilled water. Antigen retrieval was performed in sodium citrate buffer, pH 6.0, 95-100° C. for 10 min. Sections were then rinsed in PBST, 2 min each. A hydrophobic barrier pen was used to draw a circle on each slide. The slides were permeabilized with PBS/0.4% Triton X-100 twice before non-specific-binding blocking by incubating the sections with 10% goat serum (ThermoFisher 50197Z) for 30 minutes at room temperature. […] All images were captured on a Zeiss LSM 700 confocal microscope with constant laser intensity for all analyzed samples. The intensity above threshold of the fluorescent signal of the bound antibodies was analyzed using NIH ImageJ software.
Next, malondialdehyde (MDA) levels, as a biomarker for ferroptosis, were measured in tumor tissue using immunohistochemistry on fixed and paraffin-embedded tumor samples resected at day 14 post-treatment (FIG. 6B).

HT-1080 cells = assay: Cell Titer Glo cell viability assay with radiation; type: cell-based; settings: HT-1080, 4 Gy radiation for 24 h
Method: HT-1080 cells were plated at 1,000 cells per well in white 96-well plates (100 uL per well) in technical duplicates. The cells were then treated with vehicle (DMSO), Ferrostatin-1, DFO, Z-VAD-FMK or Necrostatin-1S and incubated overnight. […] After another 24 h, 100 uL of 50% Cell Titer Glo (Promega) 50% cell culture medium was added to each well and incubated at room temperature with shaking for 15 min. Luminescence was measured using a Victor X5 plate reader (PerkinElmer). Experiments were performed three independent times with different passages for each cell line.

| SMILES | Tumor volume, IKE plus radiation (HT-1080 xenograft tumors; 6 Gy on days 2 and 4) | Tumor volume, IKE alone (HT-1080 xenograft tumors; athymic nude mice) | Tumor growth, combination with radiation vs all other groups ([1]; 6 Gy on day one) | Tumor growth, drug alone vs vehicle only [1] | Abundance of 17 lipid species (FA 16:1, lysophospholipids, diacylglycerols) ([2]; HT-1080, 5 μM IKE for 12 h) | Abundance of 17 lipid species (FA 16:1, lysophospholipids, diacylglycerols) ([2]; HT-1080, 5 μM IKE for 12 h plus 6 Gy radiation for 24 h) | Tolerability (weight loss) [3] | Levels of reduced glutathione [4] | MDA signal in tumors, IKE and radiation vs vehicle [5] | MDA signal in tumors, IKE only vs vehicle [5] | Cell viability after radiation (ATP-based luciferase assay) (HT-1080 cells) |
| --- | --- | --- | --- | --- | --- | --- | --- | --- | --- | --- | --- |
| CC(C)Oc1ccc(C(=O)Cn2ccnc2)cc1-n1c(CN2CCN(C(=O)COc3ccc(Cl)cc3)CC2)nc2ccccc2c1=O [IKE, imidazole ketone erastin] | enhanced the effects of radiation in reducing tumor growth | not strongly effective | significant tumor growth inhibition | significant tumor control | increased significantly | even larger increases | well tolerated | further decreased | Significantly elevated MDA signal | No significant differences | – |
| CCOC(=O)c1ccc(NC2CCCCC2)c(N)c1 [ferrostatin-1] | – | – | – | – | – | – | – | – | – | – | rescued from death |
